What was measured:
[1] = method code SF-AS, from DOI: 10.1016/0045-6535(95)00267-c
[2] = method code SF-AS, from DOI: 10.1139/cjpp-75-12-1362, PMID: 9534947
[3] = not given; remark: listed apart in the source
[4] = not given; remark: listed apart in the source
[5] = method code SF-AS, from DOI: 10.1002/jps.2600790421, PMID: 2352153
[6] = not given; remark: listed apart in the source
[7] = method code SF-AS, from Dallet, P.; Dubost, J.; Colleter, J.; Audry, E.; Creuzet, M. (1985). QSAR in a series of alpha-adrenolitic molecules: optimization of physicochemical parameters. Eur J Med Chem, 20(6)551-557.
[8] = method code SF-AS, from DOI: 10.1002/etc.5620180606
[9] = method code SF-HPLC, from DOI: 10.1016/j.ejpb.2013.06.022, PMID: 23958327; details: pH 6.0
[10] = not given; remark: listed apart in the source
[11] = method code SF-AS, from DOI: 10.1016/0378-5173(84)90231-x
[12] = not given; remark: listed apart in the source
[13] = method code SF-GLC, from DOI: 10.1016/0048-3575(76)90072-9
[14] = method code SF-HPLC, from DOI: 10.1023/a:1015862319927, PMID: 2062808; details: pH 7.4
[15] = not given; remark: listed apart in the source
[16] = not given; remark: listed apart in the source
[17] = not given; remark: listed apart in the source
[18] = not given; remark: listed apart in the source
[19] = method code SF-HPLC, from DOI: 10.1002/jps.10072, PMID: 11920751; details: pH 7.4
[20] = method code SF-HPLC, from DOI: 10.1016/0378-5173(89)90028-8
[21] = method code SF-GLC, from DOI: 10.1016/j.chemosphere.2013.04.065, PMID: 23732011
[22] = method code SF-HPLC, from DOI: 10.1039/a702469j; details: pH 7.0
[23] = pH 7.4
[24] = method code SF-HPLC, from DOI: 10.1021/jm00112a026, PMID: 1875345; details: pH 7.4
[25] = method code G-GLC, from DOI: 10.1021/es00169a004
[26] = method code SF-AS, from DOI: 10.1021/jm00047a013, PMID: 7932583
[27] = method code SF, from DOI: 10.1021/jm00237a002, PMID: 1133810; details: pH 7.2

CCCCN(C)C(=O)Nc1ccc(Cl)c(Cl)c1
logP [1]: 4.1

O=c1[nH]c2ccccc2n1C1=CCNCC1
logP: 0.85

Cc1ncc(CO)c(/C=N/NC(=O)c2ccco2)c1O
logP [2]: 1.39

CNc1ccc(C(=O)OCCN(C)C)cc1
logP [3]: 1.95

CCOP(=S)(NC(C)CC)Oc1cc(C)ccc1[N+](=O)[O-] (configuration not stated)
logP [4]: 4.62

O=NN(CCCl)C(Cc1ccccc1)C(=O)NC(=O)NCCCl (configuration not stated)
logP [5]: 3.25

O=NN(CCCl)C(CC(=O)NCCCl)C(=O)NC(=O)NCCCl (configuration not stated)
logP [5]: 3.15

CCCCc1oc2ccccc2c1C(=O)c1cc(I)c(O)c(I)c1
logP [6]: 5.92

Cc1cc(OCCN(C)C)c(C(C)C)cc1OS(=O)(=O)CC12CCC(CC1=O)C2(C)C (configuration not stated)
logP [7]: 4.37

N#CCN(CCO)c1ccc(N=Nc2nc3ccc([N+](=O)[O-])cc3s2)cc1
logP [8]: 4.08

CCOC(=O)c1ccc(C#Cc2ccc3c(c2)C(C)(C)CCS3)nc1
logD [9]: 5.6

Cc1c(N=C2NCCN2)ccc2nccnc12
logP [10]: 0.9

CCc1ccc(C=[N+]([O-])C(C)(C)C)cc1
logP [11]: 2.19

CC1=CC(=O)c2cc(C)ccc2C1=O
logP [12]: 1.77

CCOC(=O)CN(C(=O)CCl)c1ccccc1
logP [13]: 1.6

O=c1[nH]c2cc(Cl)ccc2n1C1CCNCC1
logP: 1.59

COc1ccc(C(=O)OCC2OC(n3cc(I)c(=O)[nH]c3=O)CC2O)cc1 (configuration not stated)
logD [14]: 1.38

CC12OOC(CCC(=O)O)(C=C1CCC(=O)O)c1ccccc12 (configuration not stated)
logP [15]: 0.24

c1ccc2c(c1)-c1ccc3ccc4cccc5cc-2c1c3c45
logP [16]: 6.58

Cc1cc(OCCNCC2CC(=O)c3ccccc3C2=O)c(C(C)C)cc1O (configuration not stated)
logP [7]: 4.25

Clc1cc2c(cc1Cl)Oc1c(Cl)c(Cl)c(Cl)c(Cl)c1O2
logP [17]: 7.79

Clc1cc(Cl)cc(-c2cc(Cl)c(Cl)cc2Cl)c1
logP [18]: 5.68

CCCCCNc1ccc(C(=O)OCCN(C)C)cc1
logP [3]: 4.14

CC(=O)Oc1ccc(OCCN(C)C)cc1C
logP [7]: 1.64

CCCC(=O)OCC(CO)OCn1cnc2c(=O)[nH]c(N)nc21 (configuration not stated)
logD [19]: -0.3

O=C(O)CCC12C=CC(CCC(=O)O)(OO1)c1ccccc12
logP [15]: -0.13

Cc1c(N=C2NCCN2)ccc2c1NCCO2
logP [10]: 0.35

CCOC(=O)CN(C(=O)CCl)c1ccccc1-c1ccccc1
logP [13]: 3.37

Cc1c(N=C2NCCN2)ccc2c1NCCN2
logP [10]: 0.04

CCCC(=O)OCOC(=O)c1cn(CC)c2nc(C)ccc2c1=O
logP [20]: 2.2

C=CCOc1ccc(OCC=C)cc1
logP [21]: 3.5

CCOP(=O)(NC(C)CC)Oc1cc(C)ccc1[N+](=O)[O-] (configuration not stated)
logP [4]: 2.73

CCN(CC)C(=O)COC(=O)c1cn(CC)c2nc(C)ccc2c1=O
logP [20]: 1.43

C=CCOc1ccc(OCCC)cc1
logP [21]: 2.4

CCOP(=O)(OCC)C(C)(C)[N+]([O-])=Cc1cc[n+]([O-])cc1
logD [22]: -0.68

CSC[S@](=O)C[C@H](C)NC(=O)/C=C/c1c(C)[nH]c(=O)[nH]c1=O
logD [23]: -0.7

OC(CN1C2CCCCCCC21)Cn1ccnc1 (configuration not stated)
logD [24]: 1.84

Clc1cc(Cl)c(-c2c(Cl)cccc2Cl)c(Cl)c1
logP [25]: 5.37

CCCCCSCS(=O)CC(CO)NC(=O)/C=C/c1c(C)[nH]c(=O)[nH]c1=O (configuration not stated)
logD [23]: 0.6

CC12C=CC(C)(OO1)c1ccccc12
logP [15]: 2.17

O=C(N/N=C/c1c(O)ccc2ccccc12)c1cccc(F)c1
logP [2]: 4.06

CCCCc1oc2ccccc2c1C(=O)c1ccc(O)cc1
logP [6]: 4.87

OC(CN1C2CCCC21)Cn1ccnc1 (configuration not stated)
logD [24]: 0.37

CCCCC(=O)OCC(COC(=O)CCCC)OCn1cnc2c(=O)[nH]c(N)nc21
logD [19]: 0.83

CCOP(=O)(OCC)C(C)(C)[N+]([O-])=Cc1cccnc1
logD [22]: 0.41

COc1ccc(Oc2ccc(NC(=O)N(C)C)cc2)cc1
logP [1]: 2.54

Cc1ccc(C=[N+]([O-])C(C)(C)C)cc1
logP [11]: 1.74

CCOC(=O)CN(C(=O)CCl)c1ccccc1OC(C)C
logP [13]: 2.75

CC(C)NCC(O)COc1cccc2[nH]ccc12 (configuration not stated)
logP [12]: 1.76

CCOC(=O)O[C@]1(C(=O)COC(=O)CC)CC[C@H]2[C@@H]3CCC4=CC(=O)C=C[C@]4(C)[C@H]3[C@@H](O)C[C@@]21C
logD [9]: 2.9

CO[C@H]1N([C@H]2C[C@H](F)[C@@H](CO)O2)C(=O)NC(=O)[C@]1(C)Cl
logP [26]: 0.71

COc1ccc(C=[N+]([O-])C(C)(C)C)cc1
logP [11]: 1.21

CC(C)[C@@H](C(=O)N[C@@H](Cc1ccccc1)C(=O)NC(=O)NCCCl)N(CCCl)N=O
logP [5]: 3.47

CCCOc1cnc(NS(=O)(=O)c2ccccc2)nc1
logD [27]: 1.14

O=C(c1ccc(O)cc1)c1ccc(Cl)cc1
logP [6]: 4

Nc1ccc(C(=O)N/N=C/c2c(O)ccc3ccccc23)cc1
logP [2]: 3.04

CO[C@@H]1N([C@H]2C[C@H](F)[C@@H](CO)O2)C(=O)NC(=O)[C@@]1(C)Br
logP [26]: 0.54

CC(C)Oc1cnc(NS(=O)(=O)c2ccccc2)nc1
logD [27]: 0.86

CCOP(=O)(OCC)C(C)(C)[N+]([O-])=Cc1ccncc1
logD [22]: 0.32

CSC[S@](=O)C[C@H](CO)NC(=O)/C=C/c1c(C)[nH]c(=O)[nH]c1=O
logD [23]: -1.71

Cc1cc(C2CCCCC2)n(O)c(=O)c1
logD [9]: 2.3

Clc1cc(Cl)c2[nH]c3c(Cl)cc(Cl)cc3c2c1
logP [17]: 5.75

Clc1cc(Cl)c(Cl)c(-c2ccccc2)c1Cl
logP [25]: 5.94

CC1CCCCC1NC(=O)Nc1ccccc1 (configuration not stated)
logP [1]: 3.09

CC(=O)OCC(COC(C)=O)OCn1cnc2c(=O)[nH]c(N)nc21
logD [19]: -0.78

CCCSP(=S)(OCC)Oc1ccc(SC)cc1 (configuration not stated)
logP [4]: 4.9

c1ccc2c(c1)ccc1cc3ccc4ccccc4c3cc12
logP [16]: 6.84

C=CCOc1cccc(OCC=C)c1
logP [21]: 3.8

CCn1cc(C(=O)OC)c(=O)c2ccc(C)nc21
logP [20]: 1.23

Clc1cccc(-c2c(Cl)ccc(Cl)c2Cl)c1Cl
logP [18]: 6.04

Clc1ccc(Cl)c(-c2cccc(Cl)c2Cl)c1
logP [18]: 5.81

O=c1[nH]c2ccccc2n1C1CCNCC1
logP: 1.14

CCCNc1ccc(C(=O)OCCN(C)C)cc1
logP [3]: 3.15

C1=Cc2cccc3cccc1c23
logP [16]: 4.07

Clc1cc2c(cc1Cl)=c1cc(Cl)c(Cl)cc1=2
logP [17]: 6.14

c1ccc(N=Nc2ccccc2)cc1
logP [12]: 3.92

Clc1cc(Cl)c(-c2c(Cl)c(Cl)cc(Cl)c2Cl)c(Cl)c1Cl
logP [25]: 7.21

CO[C@@H]1N([C@H]2C[C@H](F)[C@@H](CO)O2)C(=O)NC(=O)[C@@]1(C)I
logP [26]: 0.6

OC(CN1C2CCc3ccccc3C21)Cn1ccnc1 (configuration not stated)
logD [24]: 2.15

CCCCOc1cnc(NS(=O)(=O)c2ccccc2)nc1
logD [27]: 1.41

O=C(OC[C@H]1O[C@@H](n2cc(I)c(=O)[nH]c2=O)C[C@@H]1O)c1ccc([N+](=O)[O-])cc1
logD [14]: 1.24

CC(C)C(=O)OCC1OC(n2cc(I)c(=O)[nH]c2=O)C1O (configuration not stated)
logD [14]: 0.83

Reference: the SangsterLogP compilation
